For one compound, inhibition in vivo and IC50 results are on record in patent US20060276465A1, “1,2-di(cyclic) substituted benzene compounds” (Eisai R&D Management Co., Ltd., priority 2003, published 2006).

The subject of one test is Balb/c mice. In words: Oxazolone-induced colon neutrophil infiltration model. The class given is in vivo. Particulars: Mus musculus, po, 4 h, colon myeloperoxidase activity vs oxazolone control group, male Balb/c mice, 30 mg/kg orally 30 minutes before intrarectal oxazolone, colons taken four hours after, read-out: Inhibitory rate (%). Here is the method:
Evaluation of Compounds in Oxazolone-Induced Colon Neutrophil Infiltration Model
<Sensitization with Oxazolone>
Five- to six-week-old male Balb/c mice (Charles River Japan) were shaven at the abdomen to an approximately 2 cm square area. A 100% ethanol solution containing 3% 4-ethoxymethylene-2-phenyl-2-oxazolin-5-one (hereinafter referred to as “oxazolone”; Sigma) was applied at 150 μl onto the abdomen of each mouse.
<Preparation of Emulsion Containing Oxazolone>
Distilled water (Otsuka Pharmaceutical) was added in an equivalent volume to 100% peanut oil (Kanto Kagaku) containing 1% oxazolone, and the components were vigorously mixed with a glass syringe (Top Co.), to prepare an emulsion containing 0.5% oxazolone.
<Induction with Oxazolone> […]
Each compound was suspended or dissolved in an aqueous solution containing 0.5% methyl cellulose (Wako), and orally administered at 30 mg/kg 30 minutes prior to the intrarectal injection of oxazolone emulsion. […] Specifically, to 10 μl of the obtained supernatant was added 200 μl of 50 mM KPB (pH6.0) containing 0.017% o-dianisidine (Sigma) and 0.0005% hydrogen peroxide (Wako), incubated at 37° C., and the change in absorbance at 450 nm was continuously measured for 1 minute using an EL340 Automated Microplate Reader (BIO-TEK) in kinetic mode. The units were the rate of change in absorbance per minute (mO.D./min.). […]

The subject of test [1] is human peripheral blood neutrophils. The experiment in a line: Human peripheral blood neutrophil adhesion system (adhesion to immobilized HUVEC, PMA-stimulated). Particulars: 0.75 h, concentration inhibiting by 50% the PMA-stimulated increase in the number of adhered BCECF-AM labeled neutrophils on HUVEC immobilized plate, 45 minutes, 37° C. The class given is cell-based. As to the method:
Evaluation of Compounds in Human Peripheral Blood Neutrophil Adhesion System
<Preparation of Human Peripheral Blood Neutrophils>
To a plastic centrifugation tube containing 100 units of heparin sodium (Shimizu Pharmaceutical) was added 25 ml of fresh blood sampled from a healthy human. After adding and mixing therewith 8 ml of physiological saline (Otsuka Pharmaceutical) containing 6% Dextran (Nacalai), the mixture was allowed to stand at room temperature for 45 minutes for sedimentation of the erythrocytes. The resultant supernatant was transferred to another plastic centrifugation tube and combined with an equivalent volume of phosphate-buffered saline (hereinafter abbreviated as PBS; Sigma), and then centrifuged at 1600 rpm for 7 minutes at room temperature. The obtained hematocyte fraction was suspended in 4 ml of PBS, and the suspension was superposed on 4 ml of Ficoll-Paque™ PLUS (Amersham Biosciences). The resultant bilayer liquid was centrifuged at 2000 rpm for 30 minutes at room temperature, after which the supernatant was removed and the precipitate was suspended in 10 ml of PBS and centrifuged at 1200 rpm for 7 minutes, and the supernatant was removed. The resulting precipitate was suspended in 0.5 ml of PBS again, and then 10 ml of distilled water (Otsuka Pharmaceutical) was added, 0.5 ml of an aqueous solution containing 3 M NaCl was immediately added to restore isotonicity, the mixture was centrifuged at 1200 rpm for 7 minutes, and the obtained precipitate was suspended in PBS containing 1 mg/ml bovine serum albumin (hereinafter abbreviated as BSA; Sigma) again and stored in ice until being used for the experiment.
<Fluorescent Labeling of Human Peripheral Blood Neutrophils>
The obtained neutrophils were suspended in PBS containing 1 mg/ml BSA at 2×10^7 cells/ml. BCECF-AM (Dojin) was added to a final concentration of 5 μM, and the mixture was incubated at 37° C. for 45 minutes. It was then rinsed twice with PBS containing 1 mg/ml BSA by centrifugation, suspended again in PBS containing 1 mg/ml BSA at 5×10^7 cells/ml, and stored in ice until use.
<Preparation of HUVEC Immobilized Plate>
Human umbilical vein endothelial cells (hereinafter abbreviated as HUVEC) were suspended in MCDB131 medium (Chlorella Industries) containing 10% fetal calf serum and 30 μg/ml endothelial cell growth supplement (Becton Dickinson Bioscience). The suspension was added at 7.5×10^3 cells/well to a 96-well plate (Iwaki) immobilized with type I collagen, and cultured for 3 days in a CO2 incubator (Hirasawa). Upon confirming confluency of the cells, the supernatant was discarded, the plate was rinsed twice with PBS, and then PBS containing 0.1% glutaraldehyde (Kanto Kagaku) was added at 100 μl/well and the HUVECs were immobilized for 5 minutes. The supernatant was discarded and the plate was washed twice with PBS, and then PBS was added at 100 μl/well and the mixture was stored at 4° C. until use.
To 6.5 ml of RPMI-1640 medium (Sigma) containing 1 mg/ml of BSA were added 0.5 ml of a suspension of BCECF-AM labeled neutrophils at 5×10^7/ml stored in ice, which was mixed, and the mixture was added at 80 μl/well to a HUVEC immobilized plate. To this plate were immediately added 10 μl/well of a solution of the compound diluted at different concentrations with RPMI-1640 containing 1 mg/ml BSA, and 10 μl/well of 100 nM phorbol myristate acetate (hereinafter abbreviated as PMA; Sigma) in RPMI-1640 containing 1 mg/ml BSA, and the mixture was incubated in a CO2 incubator at 37° C. for 45 minutes. The supernatant was removed from the plate, which was then washed several times with RPMI-1640 at 100 μl/well, and then PBS containing 0.1% NP-40 (Calbiochem) was added thereto at 100 μl/well and the fluorescent intensity was measured with and ARVO™SX 1420 multi label counter (Wallac) to determine the number of adhered cells. […]

With `COCCN1CCN(c2ccccc2C2CCC(C(C)(C)C)CC2)CC1.Cl` (centres unmarked) [Example 19, 1-[2-(4-t-Butylcyclohexyl)phenyl]-4-(2-methoxyethyl)piperazine hydrochloride], in the test on Balb/c mice, the inhibition in vivo at 30 mg/kg worked out at 53%. The same compound had an IC50 in test [1] of 11.6 µM.

As a reminder, the IC50 is the concentration that inhibits the measured activity by half. Higher therefore signals a need for much substance.
